According to patent publication US20100167275A1, “Potassium channel mutants of the yeast Saccharomyces cerevisiae and their use for screening eukaryotic potassium channels” (sanofi-aventis Deutschland GmbH, priority 2000, published 2010):
Where two headings read alike, the source gives them in different places.

Test system: Saccharomyces cerevisiae wild-type strain
Format: cell-based
Protocol: FIG. 9: Growth of the Saccharomyces cerevisiae wild-type strain in DPM-HIS/-TRP 5 mM KCl medium in 96-well ELISA plates in the presence of 0.5 mM CsCl. The various inhibitors were employed at a final concentration of in each case 30 μM. To measure the cell density, a commercially available LacZ reporter system pYX232 by Ingenius (cat. No. MBV-032-10) was transformed into the yeast strains to be studied. Expression of the LacZ reporter gene was under the control of the constitutive Saccharomyces cerevisiae promotor TPI for the triose phosphate isomerase gene. The LacZ enzyme activity was measured via detecting the luminescence after 24 hours' growth (density of the starter culture: 0.01 OD620) using a commercially available assay system by TROPIX.
The values correspond to the average of in each case 4 measurements±SD. The two different assays were carried out independently of each other on two different days.
All substances, dissolved in DMSO, were employed in a final concentration of 30 μM. As a control, cells were measured with the same final concentration of 0.5% DMSO without substance, without DMSO addition or without substance.

[1] = 30 μM, wild-type cells, DPM -HIS/-TRP, 0.5 mM CsCl, 24 hours growth, TROPIX kit, ASSAY 1
[2] = 30 μM, wild-type cells, DPM -HIS/-TRP, 0.5 mM CsCl, 24 hours growth, TROPIX kit, ASSAY 1, mean of 4
[3] = 30 μM, wild-type cells, DPM -HIS/-TRP, 0.5 mM CsCl, 24 hours growth, TROPIX kit, ASSAY 2
[4] = 30 μM, wild-type cells, DPM -HIS/-TRP, 0.5 mM CsCl, 24 hours growth, TROPIX kit, ASSAY 2, mean of 4

Row | SMILES | Exp. 1 (LacZ luminescence), ASSAY 1 [1] | Exp. 2 (LacZ luminescence), ASSAY 1 [1] | Exp. 3 (LacZ luminescence), ASSAY 1 [1] | Exp. 4 (LacZ luminescence), ASSAY 1 [1] | Mean growth (LacZ luminescence), ASSAY 1 [2] | Exp. 1 (LacZ luminescence), ASSAY 2 [3] | Exp. 2 (LacZ luminescence), ASSAY 2 [3] | Exp. 3 (LacZ luminescence), ASSAY 2 [3] | Exp. 4 (LacZ luminescence), ASSAY 2 [3] | Mean growth (LacZ luminescence), ASSAY 2 [4] | other results
1 | CN(C)CCOC(c1ccccc1)c1ccccc1 [Diphenhydramine] | 2806 | 3161 | 4178 | 4884 | 3757.25 | 3468 | 2980 | 3062 | 3581 | 3267.75 | 
2 | CCOC(=O)N1CCC(=C2c3ccc(Cl)cc3CCc3cccnc32)CC1 [Loratadine, ethyl 4-(8-chloro-5,6-dihydro-11H-benzo[5,6]cyclohepta[1,2-b]pyridin-11-ylidene)-1-piperidinecarboxytate] | 4905 | 5141 | 1857 | 3266 | 3792.25 | 3553 | 1965 | 3590 | 2478 | 2896.5 | 
3 | O=C1NCCN1CCN1CCC(c2cn(-c3ccc(F)cc3)c3ccc(Cl)cc23)CC1 [Sertindole, 1-(2-[4-[5-chloro-1-(4-fluorophenyl)-1H-indol-3-yl]-1-piperidinyl]ethyl)-2-imidazolidinone] | 4165 | 2099 | 4588 | 3069 | 3480.25 | 3992 | 3076 | 3972 | 2782 | 3455.5 | specificity of inhibition of the human HERG1 channel (comparison with wild-type strain): specific inhibitors
4 | CC(C)(C)c1ccc(C(O)CCCN2CCC(C(O)(c3ccccc3)c3ccccc3)CC2)cc1 (stereo not drawn) [Terfenadine, α-(4-tert-butylphenyl)-4-(α-hydroxy-αphenylbenzyl)-1-piperidinebutanol] |  |  |  |  |  |  |  |  |  |  | Exp. 1 (LacZ luminescence), ASSAY 1: 4497; Exp. 1 (LacZ luminescence), ASSAY 2: 3439; Exp. 2 (LacZ luminescence), ASSAY 1: 4481; Exp. 2 (LacZ luminescence), ASSAY 2: 3795; Exp. 3 (LacZ luminescence), ASSAY 1: 5058; Exp. 3 (LacZ luminescence), ASSAY 2: 3698; Exp. 4 (LacZ luminescence), ASSAY 1: 5381; Exp. 4 (LacZ luminescence), ASSAY 2: 3388; Mean growth (LacZ luminescence), ASSAY 1: 4854.25; Mean growth (LacZ luminescence), ASSAY 2: 3580
